Patent US9248109B2, “High penetration prodrug compositions of peptides and peptide-related compounds” (priority 2009, dated 2016)
Where a name gives a salt, the structure may show the parent alone. Non-standard residues stand in square brackets, D forms with d. Residues, ends and D or L forms follow the SMILES beside them. *: point of attachment. Arg(NO2) = N=C(NCCC[C@H](N)C(=O)O)N[N+](=O)[O-]; X1 = CCCCO*

Key:
[1] = system: young Sprague Dawley rats; experiment: Anti-obese activity, transdermal, young female Sprague Dawley rats (second experiment); format: in vivo, rat; conditions: for effect on overweight of young rats (in words): 10, 1 or 0.3 mg/kg transdermal twice per day for 30 days; for Food intake (per day & per rat) / Weight (g) (Day 30) / Weight (g) (Day 1): young rats; for Weight (g) (Day 1): baseline
Procedure: (§1) In a second experiment, 40 young female Sprague Dawley (SD) rats (180-225 g) were divided into 4 groups. In group A, 0.2 ml of water was administered to the back of rat (n=10) twice per day for 30 days. In Groups B, C, and D, 10 mg/kg, 1 mg/kg, or 0.3 mg/kg of H-Val-Pro-Gly-Pro-Arg(NO2)—OCH(CH3)2.HCl(SEQ ID NO: 197) in 0.2 ml of water were administered transdermally to the backs of rats (n=10) twice per day for 30 days respectively.
as §1, with “(180-230” for “(180-225”, “H-Val-Pro-Gly-Pro-Arg(diAc)-OCH2CH2CH2CH3.HCl(SEQ” for “H-Val-Pro-Gly-Pro-Arg(NO2)—OCH(CH3)2.HCl(SEQ”, “198)” for “197)”, “days.” for “days respectively.”
as §1, with “rats (182-223” for “rats (180-225”, “of H-Ala-Pro-Gly-Pro-Arg(NO2)—OCH2CH2CH2CH3.HCl(SEQ” for “of H-Val-Pro-Gly-Pro-Arg(NO2)—OCH(CH3)2.HCl(SEQ”, “NO: 199)” for “NO: 197)”, “water was” for “water were”
as §1, with “(185-220” for “(180-225”, “H-Val-Pro-Asp(OEt)-Pro-Arg(NO2)-OCH2CH2CH2CH3.HCl(SEQ” for “H-Val-Pro-Gly-Pro-Arg(NO2)—OCH(CH3)2.HCl(SEQ”, “200)” for “197)”, “days.” for “days respectively.”

obese mice (SLAC/DB/DB) = experiment: Anti-obese activity, transdermal, obese female DB/DB mice (third experiment); format: in vivo, mouse; conditions: for Weight (g) (Day 1) / Blood Glucose Levels (day 1) (mg/dL, no fasting): baseline; for effect on body weights and blood glucose levels of obese mice (in words): 15, 1.5 and 0.5 mg/kg transdermal twice per day for 30 days
Procedure: (§2) In a third experiment, 40 obese female DB/DB mice (SLAC/DB/DB mice, 16 weeks old, 55-60 g) were divided into 4 groups. In group A, 0.1 ml of water was administered to the back of mouse (n=10) twice per day for 30 days. In Groups B, C, and D, 15 mg/kg, 1.5 mg/kg, and 0.5 mg/kg of H-Val-Pro-Gly-Pro-Arg(NO2)-OCH(CH3)2.HCl(SEQ ID NO: 197) in 0.1 ml of water was administered transdermally to the back of mouse (n=10) twice per day for 30 days respectively.
as §2, with “(SLAC/DB/DB) mice (16” for “(SLAC/DB/DB mice, 16”, “H-Val-Pro-Gly-Pro-Arg(diAc)-OCH2CH2CH2CH3.HCl(SEQ” for “H-Val-Pro-Gly-Pro-Arg(NO2)-OCH(CH3)2.HCl(SEQ”, “198)” for “197)”
as §2, with “(SLAC/DB/DB) mice (16” for “(SLAC/DB/DB mice, 16”, “53-61” for “55-60”, “H-Ala-Pro-Gly-Pro-Arg(NO2)—OCH2CH2CH2CH3.HCl(SEQ” for “H-Val-Pro-Gly-Pro-Arg(NO2)-OCH(CH3)2.HCl(SEQ”, “199)” for “197)”
as §2, with “(SLAC/DB/DB) mice (16” for “(SLAC/DB/DB mice, 16”, “53-61” for “55-60”, “H-Val-Pro-Asp(OEt)-Pro-Arg(NO2)-OCH2CH2CH2CH3.HCl(SEQ” for “H-Val-Pro-Gly-Pro-Arg(NO2)-OCH(CH3)2.HCl(SEQ”, “200)” for “197)”

[2] = 0.3 mg/kg transdermal twice per day for 30 days
[3] = 0.3 mg/kg transdermal twice per day
[4] = 1 mg/kg transdermal twice per day for 30 days
[5] = 1 mg/kg transdermal twice per day
[6] = 10 mg/kg transdermal twice per day for 30 days
[7] = 10 mg/kg transdermal twice per day
[8] = 0.5 mg/kg transdermal twice per day for 30 days
[9] = 0.5 mg/kg transdermal twice per day
[10] = 1.5 mg/kg transdermal twice per day for 30 days
[11] = 1.5 mg/kg transdermal twice per day
[12] = 15 mg/kg transdermal twice per day for 30 days
[13] = 15 mg/kg transdermal twice per day

| Compound | effect on overweight of young rats (in words) [1] | Food intake (per day & per rat) [1, 2] | Weight (g) (Day 30) [1, 2] | Weight (g) (Day 1) [1, 3] | Food intake (per day & per rat) [1, 4] | Weight (g) (Day 30) [1, 4] | Weight (g) (Day 1) [1, 5] | Food intake (per day & per rat) [1, 6] | Weight (g) (Day 30) [1, 6] | Weight (g) (Day 1) [1, 7] | Weight (g) (Day 30) (obese mice (SLAC/DB/DB); [8]) | Blood Glucose Levels (day 30) (mg/dL, no fasting) (obese mice (SLAC/DB/DB); [8]) [mg/dL] | Weight (g) (Day 1) (obese mice (SLAC/DB/DB); [9]) | Blood Glucose Levels (day 1) (mg/dL, no fasting) (obese mice (SLAC/DB/DB); [9]) [mg/dL] | Weight (g) (Day 30) (obese mice (SLAC/DB/DB); [10]) | Blood Glucose Levels (day 30) (mg/dL, no fasting) (obese mice (SLAC/DB/DB); [10]) [mg/dL] | Weight (g) (Day 1) (obese mice (SLAC/DB/DB); [11]) | Blood Glucose Levels (day 1) (mg/dL, no fasting) (obese mice (SLAC/DB/DB); [11]) [mg/dL] | Weight (g) (Day 30) (obese mice (SLAC/DB/DB); [12]) | Blood Glucose Levels (day 30) (mg/dL, no fasting) (obese mice (SLAC/DB/DB); [12]) [mg/dL] | further results |
| --- | --- | --- | --- | --- | --- | --- | --- | --- | --- | --- | --- | --- | --- | --- | --- | --- | --- | --- | --- | --- | --- |
| CCCCOC(=O)[C@H](CCCNC(=N)N[N+](=O)[O-])NC(=O)[C@@H]1CCCN1C(=O)CNC(=O)[C@@H]1CCCN1C(=O)[C@H](C)N [H-Ala-Pro-Gly-Pro-Arg(NO2)—OCH2CH2CH2CH3.HCl] (HELM PEPTIDE1{A.P.G.P.[N=C(NCCC[C@H](N[*:1])C(=O)[*:2])N[N+](=O)[O-]].[CCCCO[*:1]]}$$$$V2.0) | controlled overweight of rats effectively | 21.3 ± 2.2 | 326.2 ± 4.8 | 194.1 ± 4.5 | 20.3 ± 2.7 | 321.7 ± 4.0 | 192.6 ± 4.1 | 19.5 ± 2.3 | 305.4 ± 4.7 | 193.7 ± 4.2 | 54.7 ± 2.7 | 159.4 ± 24.4 | 58.4 ± 2.9 | 197.6 ± 28.2 | 53.3 ± 3.2 | 148.4 ± 16.4 | 57.1 ± 2.8 | 199.4 ± 23.7 | 51.9 ± 2.7 | 139.5 ± 15.9 | Weight (g) (Day 1) (obese mice (SLAC/DB/DB); [13]): 57.2 ± 2.2 g; Blood Glucose Levels (day 1) (mg/dL, no fasting) (obese mice (SLAC/DB/DB); [13]): 202.4 ± 21.4 mg/dL; effect on body weights and blood glucose levels of obese mice (in words) (obese mice (SLAC/DB/DB)): reduced body weights and blood glucose levels of obese mice effectively |
| CCCCOC(=O)[C@H](CCCNC(=N)N[N+](=O)[O-])NC(=O)[C@@H]1CCCN1C(=O)[C@H](CC(=O)OCC)NC(=O)[C@@H]1CCCN1C(=O)[C@@H](N)C(C)C [H-Val-Pro-Asp(OEt)-Pro-Arg(NO2)—OCH2CH2CH2CH3.HCl] (H-VPD(OEt)P[Arg(NO2)]-X1) | controlled overweight of rats effectively | 22.7 ± 2.9 | 336.6 ± 5.8 | 192.1 ± 4.6 | 21.3 ± 2.1 | 325.4 ± 4.9 | 193.2 ± 4.7 | 20.4 ± 2.7 | 315.4 ± 6.7 | 191.2 ± 5.2 | 56.7 ± 2.8 | 171.8 ± 28.4 | 58.7 ± 3.3 | 199.6 ± 31.5 | 54.3 ± 2.9 | 152.4 ± 26.8 | 58.8 ± 3.1 | 203.4 ± 25.8 | 52.4 ± 3.4 | 145.4 ± 25.7 | Weight (g) (Day 1) (obese mice (SLAC/DB/DB); [13]): 57.9 ± 3.8 g; Blood Glucose Levels (day 1) (mg/dL, no fasting) (obese mice (SLAC/DB/DB); [13]): 203.4 ± 27.4 mg/dL; effect on body weights and blood glucose levels of obese mice (in words) (obese mice (SLAC/DB/DB)): reduced body weights and blood glucose levels of obese mice effectively |
| CC(C)OC(=O)[C@H](CCCNC(=N)N[N+](=O)[O-])NC(=O)[C@@H]1CCCN1C(=O)CNC(=O)[C@@H]1CCCN1C(=O)[C@@H](N)C(C)C [H-Val-Pro-Gly-Pro-Arg(NO2)-OCH(CH3)2•HCl, H-Val-Pro-Gly-Pro-Arg(NO2)—OCH(CH3)2.HCl] (HELM PEPTIDE1{V.P.G.P.[N=C(NCCC[C@H](N[*:1])C(=O)[*:2])N[N+](=O)[O-]].[CC(C)O[*:1]]}$$$$V2.0) | controlled overweight of young rats effectively | 21.8 ± 2.7 | 327.2 ± 3.8 | 195.1 ± 5.5 | 20.1 ± 2.8 | 323.1 ± 4.5 | 191.6 ± 4.7 | 19.8 ± 3.3 | 307.4 ± 5.7 | 192.7 ± 6.2 | 54.2 ± 2.9 | 153.4 ± 26.4 | 56.2 ± 2.7 | 199.7 ± 26.8 | 52.3 ± 1.9 | 142.4 ± 18.7 | 57.2 ± 2.1 | 201.4 ± 23.1 | 52.1 ± 2.2 | 137.4 ± 25.2 | Weight (g) (Day 1) (obese mice (SLAC/DB/DB); [13]): 57.7 ± 1.6 g; Blood Glucose Levels (day 1) (mg/dL, no fasting) (obese mice (SLAC/DB/DB); [13]): 206.4 ± 21.8 mg/dL; effect on body weights and blood glucose levels of obese mice (in words) (obese mice (SLAC/DB/DB)): reduced body weights and blood glucose levels of obese mice effectively |
| H-Val-Pro-Gly-Pro-Arg(diAc)-OCH2CH2CH2CH3.HCl | controlled overweight of young rats effectively | 23.7 ± 2.9 | 346.2 ± 4.8 | 191.1 ± 4.8 | 22.1 ± 2.8 | 334.1 ± 4.9 | 190.6 ± 5.7 | 20.8 ± 2.8 | 317.4 ± 6.4 | 191.7 ± 4.6 | 59.3 ± 3.2 | 179.4 ± 21.1 | 57.9 ± 2.7 | 196.9 ± 29.8 | 58.3 ± 2.9 | 166.4 ± 20.8 | 57.6 ± 3.8 | 195.4 ± 36.7 | 54.7 ± 3.8 | 152.4 ± 17.9 | Weight (g) (Day 1) (obese mice (SLAC/DB/DB); [13]): 56.7 ± 2.7 g; Blood Glucose Levels (day 1) (mg/dL, no fasting) (obese mice (SLAC/DB/DB); [13]): 201.5 ± 24.6 mg/dL; effect on body weights and blood glucose levels of obese mice (in words) (obese mice (SLAC/DB/DB)): reduced body weights and blood glucose levels of obese mice effectively |
